A short description of data set [1]: Orienting acute toxicity after a single oral dose. To be noted: mouse, in vivo, read-out: Orientierende aktute Toxizität. An excerpt:
(§1) Die orientierende akute Toxizität der zu untersuchenden Substanzen wurde orientierend an Gruppen von je 5 Mäusen nach oraler Gabe einer Einzeldosis bestimmt (Beobachtungszeit: 14 Tage): […]

For data set [2], the system named is Mäusen. The experiment in a line: Orienting acute toxicity after a single oral dose. The following applies: in vivo, po, 250 mg/kg.
Text: as §1

[3] abbreviates: mice, groups of 5, oral single dose, observation time 14 days.

Read-outs that look alike come from different tables or passages of the source.

As to `CSc1nc2c(N3CC[S+]([O-])CC3)nc(N3CCNCC3)nc2nc1NCc1ccccc1` [Substanz D, 7-Benzylamino-6-methylthio-4-(1-oxidothiomorpholino)-2-piperazino-pteridin], in data set [1] (setting [3]), the LD50 at 336 h was over 250 mg/kg. This compound also yielded a Tieren gestorben in data set [2] of 0 von 5.
As for `c1ccc(CSc2nc3c(N4CCOCC4)nc(N4CCNCC4)nc3nc2N2CCOCC2)cc1` [Substanz A, 6-Benzylthio-4,7-dimorpholino-2-piperazino-pteridin], the LD50 at 336 h in data set [1] (setting [3]) was over 250 mg/kg. Moreover, in data set [2], the Tieren gestorben came out at 0 von 5.
For the compound `CN(C)c1nc2nc(N3CCNCC3)nc(N(C)C)c2nc1SCc1ccccc1` [Substanz C, 6-Benzylthio-4,7-bis-(dimethylamino)-2-piperazino-pteridin], the LD50 at 336 h in data set [1] (setting [3]) is over 250 mg/kg. The Tieren gestorben in data set [2] came out at 0 von 5.
Regarding `CN(C)c1nc(N2CCNCC2)nc2nc(NCc3ccccc3)c(Cl)nc12` [Substanz E, 6-Chlor-2-piperazino-4-dimethyl-amino-7-benzylamino-pteridin], the LD50 at 336 h in data set [1] (po) is over 250 mg/kg. The compound further registered a Tieren gestorben in data set [2] of 0 von 5.
For `CN(C)c1nc2nc(N3CCNCC3)nc(N(C)C)c2nc1Cl` [Substanz B, 6-Chlor-4,7-bis-(dimethylamino)-2-piperazino-pteridin], in that order: over 250 mg/kg and 0 von 5.

The values are drawn from patent EP0134922A1, “2-Piperazino-pteridines, processes for their preparation and medicaments containing these compounds” (Dr. Karl Thomae GmbH, priority 1983, dated 1985).
